{"source": "PubChem BioAssay AID623928", "about": "(NMMLSC, 2012)", "tested_on": "Fa2N-4 hepatocyte viability, ATP luminescence, 24 h", "assay": "cytotoxicity in immortalized human hepatocytes, late-stage follow-up, cytotoxicity control for GPR30 and estrogen receptor ligands, Fa2N-4 cells (AID 623928)", "note": "Active and inactive are the calls of the source.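 Rule for the calls: active = liver cell toxicity, with the dose killing half the cells under 10 micromolar; inactive = the rest.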", "data": [{"smiles": "CC(=O)c1ccc2c(c1)[C@@H]1C=CC[C@@H]1[C@H](c1cc3c(cc1Br)OCO3)N2", "values": [{"measurement": "LC50", "value": "> 50 µM (inactive)"}]}]}
